Results: paper PMC10253456, “Investigating the Contribution of Major Drug-Metabolising Enzymes to Possum-Specific Fertility Control” (International Journal of Molecular Sciences, 2023)
Where two headings read alike, the source gives them in different places.

Assays:
CYP3A [1] = test: CYP3A catalytic activity (erythromycin N-demethylation) in mouse liver microsomes; settings: for Percent control catalytic activity at estimated IC50 / Percent control catalytic activity at estimated 2-fold IC50: mouse liver microsomes, initial screen n=1; for Percent control catalytic activity at estimated IC50: compounds without reported IC50 at 1 µM; for Percent control catalytic activity at estimated 2-fold IC50: compounds without reported IC50 at 5 µM; for inhibition of CYP3A catalytic activities at higher concentration / % of control (catalytic activity at 2-fold IC50) / Catalytic activity at 2-fold IC50: mouse; for inhibition of CYP3A catalytic activities at higher concentration: 10 µM; for % of control (catalytic activity at 2-fold IC50) / Catalytic activity at 2-fold IC50: compound at estimated 2-fold IC50 (5 µM where none reported)
Experimental: (§1) Possums were collected from the Otago Peninsula (Dunedin) and the Okuti Valley, Banks Peninsula (Christchurch) in New Zealand in collaboration with the Otago Peninsula Biodiversity Group and Manaaki Whenua-Landcare Research, respectively. […] Possums were caged and humanely killed by a blow to the head, and the livers were harvested, snap-frozen in liquid nitrogen, and stored in a freezer at −80 °C until the preparation of microsomal fractions. […] Mice were euthanised by carbon dioxide inhalation and the livers were removed and microsomes prepared. […] The livers from avian species (mallards and a swan) were kindly donated by a local bird hunting group based in Dunedin, New Zealand. The livers from avian species were treated similarly to those mentioned above for the possum samples.
(§2) Microsomal preparation was carried out as previously described [76]. […] All procedures were performed at 0–4 °C. The liver samples were minced and homogenised in Buffer A (0.1 M Tris, 0.1 M potassium chloride, 1 mM EDTA, and 20 μM butylated hydroxytoluene, at pH = 7.4) using the Teflon-glass homogeniser (5–6 vertical passes). The samples were centrifuged at 10,000× g for 20 min. The supernatant was then transferred into another set of centrifuge tubes and spun at 100,000× g for 60 min. The pellet was resuspended in Buffer B (0.1 M potassium pyrophosphate, 1 mM EDTA, and 20 μM butylated hydroxytoluene, at pH = 7.4), homogenised, and recentrifuged at 100,000× g for 60 min. Finally, the pellet was homogenised in 1–2 mL of Buffer C (10 mM Tris-HCl, 1 mM EDTA, and 4% glycerol (v/v)), and stored at −80 °C until use. The protein concentration of the microsomes was determined using the bicinchoninic acid (BCA) method [77].
(§3) CYP3A catalytic activity was determined using the erythromycin N-demethylation activity assay, as described [78]. The reaction mixture (final volume of 1 mL and final protein concentration of 1 mg) contained 500 µL of microsomes in 0.1 M phosphate buffer (pH 7.4) and 400 µL of erythromycin buffer (0.45 mM), and 50 µL of the test compound was pre-warmed at 37 °C for 2 min. The reaction was initiated with 50 µL of 2.5 mM nicotinamide adenine dinucleotide phosphate (NADP^+) and incubated for 30 min at 37 °C. […] The tubes were vortexed and left for 5 min (at room temperature), and then 330 µL of saturated barium hydroxide was added. The tubes were further vortexed and left for 5 min (at room temperature). The tubes were then centrifuged at 1800× g for 10 min. To 830 µL of the supernatant, 330 µL of Nash reagent (30% (w/v) ammonium acetate, 0.4% (v/v) acetylacetone) was added and further incubated for 30 min at 60 °C. The blank tube contained 330 µL of Nash reagent and 830 µL of Milli-Q water. […] The CYP3A activities were determined in nmol/mg/min using standard curve data. Results presented are the mean ± SEM of 3 independent experiments performed in duplicate unless otherwise stated.

CYP3A [2] = settings: avian; compound at estimated 2-fold IC50 (5 µM where none reported)
Experimental: as §1, §2, §3

CYP3A [3] = test: CYP3A catalytic activity (erythromycin N-demethylation) in possum liver microsomes; settings: for Percent control catalytic activity at estimated IC50 / Percent control catalytic activity at estimated 2-fold IC50: possum liver microsomes, initial screen n=1; for Percent control catalytic activity at estimated IC50: compounds without reported IC50 at 1 µM; for Percent control catalytic activity at estimated 2-fold IC50: compounds without reported IC50 at 5 µM; for inhibition of CYP3A catalytic activities at higher concentration / % of control (catalytic activity at 2-fold IC50) / Catalytic activity at 2-fold IC50 / reduced catalytic activity of possum CYP3A, % of the control: possum; for inhibition of CYP3A catalytic activities at higher concentration: 10 µM; for % of control (catalytic activity at 2-fold IC50) / Catalytic activity at 2-fold IC50: compound at estimated 2-fold IC50 (5 µM where none reported); for reduced catalytic activity of possum CYP3A, % of the control: mainly at 5 µM or an estimated 2-fold IC50, not significantly different
CYP3A [4] = test: CYP3A catalytic activity (erythromycin N-demethylation) in pooled human liver microsomes; settings: for % of control (catalytic activity at 2-fold IC50) / Catalytic activity at 2-fold IC50: compound at estimated 2-fold IC50 (5 µM where none reported); for activity at 30 min: human, pH 7.4, probe erythromycin, % of control (catalytic activity at IC50), compound at estimated IC50 (1 µM where none reported)
Experimental: as §3
UGT2B (heading: UGT2B4) [5] = test: p-nitrophenol glucuronidation activity in possum liver microsomes; type: biochemical, possum (Trichosurus vulpecula); settings: possum (Trichosurus vulpecula), pH 7.4, compound at estimated IC50, read-out: % of control (UGT2B4 catalytic activity at IC50)
UGT2B [6] = test: as above; type: biochemical, possum (Trichosurus vulpecula); settings: for % of control (UGT2B4 catalytic activity at 2-fold IC50) / UGT2B4 catalytic activity at 2-fold IC50: compound at estimated 2-fold IC50; for p-nitrophenol glucuronidation (UGT2B) activity, % of the control: at estimated IC50 and 2-fold IC50 values; for Glucuronidation Activities / Percent of Control: p-nitrophenol 0.625 mM
UGT2B (heading: UGT2B4) [7] = test: in vitro; settings: avian (mallards and a swan), pH 7.4
UGT2B (heading: UGT2B4) [8] = test: p-nitrophenol glucuronidation activity in mouse liver microsomes; settings: BALB/c, mouse
UGT2B [9] = test: as above; settings: mouse; for % of control (UGT2B4 catalytic activity at 2-fold IC50) / UGT2B4 catalytic activity at 2-fold IC50: compound at estimated 2-fold IC50
UGT2B [10] = settings: avian; for % of control (UGT2B4 catalytic activity at 2-fold IC50) / UGT2B4 catalytic activity at 2-fold IC50: compound at estimated 2-fold IC50
UGT2B (heading: UGT2B4) [11] = test: p-nitrophenol glucuronidation activity in pooled human liver microsomes; settings: human, pooled human liver microsomes (50 donors), pH 7.4, probe p-nitrophenol (0.5 mM final, from 50 µL of 5 mM in 500 µL)
UGT2B [12] = test: as above; settings: pooled human liver microsomes
[13] = compound at estimated 2-fold IC50

| SMILES | Percent control catalytic activity at estimated IC50 (CYP3A [1]) | Percent control catalytic activity at estimated 2-fold IC50 (CYP3A [1]) | inhibition of CYP3A catalytic activities at higher concentration (CYP3A [1]) | % of control (catalytic activity at 2-fold IC50) (CYP3A [1]) | Catalytic activity at 2-fold IC50 (CYP3A [1]) | % of control (catalytic activity at 2-fold IC50) (CYP3A [2]) | Catalytic activity at 2-fold IC50 (CYP3A [2]) | Percent control catalytic activity at estimated IC50 (CYP3A [3]) | Percent control catalytic activity at estimated 2-fold IC50 (CYP3A [3]) | inhibition of CYP3A catalytic activities at higher concentration (CYP3A [3]) | % of control (catalytic activity at 2-fold IC50) (CYP3A [3]) | Catalytic activity at 2-fold IC50 (CYP3A [3]) | reduced catalytic activity of possum CYP3A, % of the control (CYP3A [3]) | % of control (catalytic activity at 2-fold IC50) (CYP3A [4]) | Catalytic activity at 2-fold IC50 (CYP3A [4]) | activity at 30 min (UGT2B (heading: UGT2B4) [7]) | activity at 30 min (CYP3A [4]) | also measured |
| --- | --- | --- | --- | --- | --- | --- | --- | --- | --- | --- | --- | --- | --- | --- | --- | --- | --- | --- |
| CCc1oc2ccccc2c1C(=O)c1cc(Br)c(O)c(Br)c1 [Benzbromarone] | 97 percent control | 96 percent control | did not show any significant inhibition | 97 % of control | 0.57 ± 0.08 nmol/mg/min | 104 % of control | 0.34 ± 0.01 nmol/mg/min | 83 percent control | 78 percent control | did not show any significant inhibition | 80 % of control | 0.26 ± 0.02 nmol/mg/min | ~ 35 % of the control | 113 % of control | 0.37 nmol/mg/min |  |  |  |
| CC[C@H]1OC(=O)[C@H](C)[C@@H](O[C@H]2C[C@@](C)(OC)[C@@H](O)[C@H](C)O2)[C@H](C)[C@@H](O[C@@H]2O[C@H](C)C[C@H](N(C)C)[C@H]2O)[C@](C)(OC)C[C@@H](C)C(=O)[C@H](C)[C@@H](O)[C@]1(C)O [Clarithromycin] | 89 percent control | 81 percent control |  | 95 % of control | 0.60 ± 0.09 nmol/mg/min | 94 % of control | 0.41 ± 0.07 nmol/mg/min | 90 percent control | 117 percent control |  | 103 % of control | 0.43 ± 0.01 nmol/mg/min |  | 91 % of control | 0.59 nmol/mg/min | 110% | 95% | activity at 30 min (UGT2B (heading: UGT2B4) [5]): 108%; % of control (UGT2B4 catalytic activity at 2-fold IC50) (UGT2B [6]): 96 % of control; UGT2B4 catalytic activity at 2-fold IC50 (UGT2B [6]): 3.51 ± 0.28 µmol/mg/min; activity at 30 min (UGT2B (heading: UGT2B4) [8]; pH 7.4): 120%; % of control (UGT2B4 catalytic activity at 2-fold IC50) (UGT2B [9]): 90 % of control; UGT2B4 catalytic activity at 2-fold IC50 (UGT2B [9]): 1.77 ± 0.12 µmol/mg/min; % of control (UGT2B4 catalytic activity at 2-fold IC50) (UGT2B [10]): 48 % of control; UGT2B4 catalytic activity at 2-fold IC50 (UGT2B [10]): 0.20 ± 0.08 µmol/mg/min |
| CC(C)c1nc(CN(C)C(=O)N[C@@H](CCN2CCOCC2)C(=O)N[C@H](CC[C@H](Cc2ccccc2)NC(=O)OCc2cncs2)Cc2ccccc2)cs1 [Cobicistat] |  |  |  |  |  |  |  |  |  |  |  |  |  |  |  | 33% |  | activity at 30 min (UGT2B (heading: UGT2B4) [11]): 110%; activity at 30 min (UGT2B (heading: UGT2B4) [8]; liver microsomes, pH 7.4, probe p-nitrophenol (0.5 mM final, from 50 µL of 5 mM in 500 µL)): 104% |
| OC(Cn1cncn1)(Cn1cncn1)c1ccc(F)cc1F [Fluconazole] | 70 percent control |  |  |  |  |  |  | 107 percent control |  |  |  |  |  |  |  | 224% | 91% | activity at 30 min (UGT2B (heading: UGT2B4) [5]): 93%; p-nitrophenol glucuronidation (UGT2B) activity, % of the control (UGT2B [6]): > 65 % of the control; activity at 30 min (UGT2B (heading: UGT2B4) [11]): 112%; activity at 30 min (UGT2B (heading: UGT2B4) [8]; pH 7.4): 81% |
| C[C@]12CC[C@H](O)CC1=CC[C@@H]1[C@@H]2CC[C@]2(C)C(n3cnc4ccccc43)=CC[C@@H]12 [Galeterone] | 88 percent control | 86 percent control | did not show any significant inhibition | 105 % of control | 0.63 ± 0.10 nmol/mg/min |  | 0.36 ± 0.04 nmol/mg/min | 76 percent control | 80 percent control | did not show any significant inhibition | 83 % of control | 0.32 ± 0.02 nmol/mg/min | ~ 35 % of the control | 114 % of control | 0.61 nmol/mg/min |  | 99% |  |
| C=C[C@@H]1C2=CCOC(=O)C2=CO[C@H]1O[C@@H]1O[C@H](CO)[C@@H](O)[C@H](O)[C@H]1O [Gentiopicroside] | 92 percent control | 85 percent control | did not show any significant inhibition | 97 % of control | 0.56 ± 0.12 nmol/mg/min | 114 % of control | 0.32 ± 0.03 nmol/mg/min | 98 percent control | 83 percent control | did not show any significant inhibition | 82 % of control | 0.29 ± 0.02 nmol/mg/min | ~ 35 % of the control | 122 % of control | 0.54 nmol/mg/min |  |  |  |
| COc1cc(C2Oc3ccc([C@H]4Oc5cc(O)cc(O)c5C(=O)[C@@H]4O)cc3OC2CO)ccc1O (stereo partly shown) [Isosilybin] | 71 percent control |  |  |  |  |  |  | 73 percent control |  |  |  |  |  |  |  |  |  | inhibitory potential on glucuronidation activity with varying concentrations of p-nitrophenol (substrate) (UGT2B [6]; Table 1): no significant changes compared to their respective control activities; p-nitrophenol glucuronidation (UGT2B) activity, % of the control (UGT2B [6]): > 65 % of the control; % of control (UGT2B4 catalytic activity at 2-fold IC50) (UGT2B [6]): 65 % of control; UGT2B4 catalytic activity at 2-fold IC50 (UGT2B [6]): 2.21 ± 0.17 µmol/mg/min; % of control (UGT2B4 catalytic activity at IC50) (UGT2B [6]; compound at estimated IC50): 78 % of control; Glucuronidation Activities (UGT2B [6]; isosilybin 100 µM): 0.12 ± 0.09 µmol/mg/min; Percent of Control (UGT2B [6]; isosilybin 100 µM): 63% of Control; Glucuronidation Activities (UGT2B [6]; isosilybin 200 µM): 0.13 ± 0.05 µmol/mg/min; Percent of Control (UGT2B [6]; isosilybin 200 µM): 67% of Control; p-nitrophenol glucuronidation (UGT2B) activity, % of the control (UGT2B [12]; at estimated IC50 and 2-fold IC50 values): no significant inhibition; % of control (UGT2B4 catalytic activity at 2-fold IC50) (UGT2B [12]; [13]): 107 % of control; UGT2B4 catalytic activity at 2-fold IC50 (UGT2B [12]; [13]): 3.15 µmol/mg/min; % of control (UGT2B4 catalytic activity at IC50) (UGT2B [12]; compound at estimated IC50): 93 % of control; % of control (UGT2B4 catalytic activity at 2-fold IC50) (UGT2B [9]): 80 % of control; UGT2B4 catalytic activity at 2-fold IC50 (UGT2B [9]): 1.55 ± 0.19 µmol/mg/min; % of control (UGT2B4 catalytic activity at IC50) (UGT2B [9]; compound at estimated IC50): 96 % of control; % of control (UGT2B4 catalytic activity at 2-fold IC50) (UGT2B [10]): 67 % of control; UGT2B4 catalytic activity at 2-fold IC50 (UGT2B [10]): 0.28 ± 0.11 µmol/mg/min; % of control (UGT2B4 catalytic activity at IC50) (UGT2B [10]; compound at estimated IC50): 101 % of control |
| COc1ccc(/C=C/c2cc(O)cc(O)c2)cc1O [Rhapontigenin] | 116 percent control | 157 percent control |  | 144 % of control | 0.52 ± 0.05 nmol/mg/min | 101 % of control | 0.30 ± 0.03 nmol/mg/min | 103 percent control | 103 percent control |  | 124 % of control | 0.40 ± 0.03 nmol/mg/min |  | 110 % of control | 0.53 nmol/mg/min |  | 106% |  |
